{"source": "patent US4673671A", "about": "“Method for improving the absorption and effectiveness of a catecholamine compound” (SIMES Societa Italiana Medicinali e Sintetici S.p.A., priority 1984, dated 1987)", "key": {"urine excretion": {"test_system": "urine excretion", "assay": "Urine excretion in normally hydrated rats, oral administration", "assay_type": "in vivo, rat", "conditions": "0.29 mmoles/kg; for increase of urine excretion: p<0.05", "text": "These diuretic properties are useful in the therapy of hypertension and cardiac and renal failure."}, "[1]": {"test_system": "renal blood flow and renal vascular resistances", "assay": "Cardiovascular parameters (renal blood flow and renal vascular resistances) in anesthetized dogs, intraduodenal administration", "assay_type": "in vivo, dog", "conditions": "for renal vasodilating effect (in words): comparison of N-methyldopamine 4-O-dihydrogenphosphate with N-methyldopamine; for duration of effects on renal blood flow and resistances / selectivity and duration of renal effect (in words): 5 mg/kg", "experimental": "The activity of N-methyldopamine 4-O-dihydrogenphosphate on cardiovascular parameters in anesthetized dogs was compared with that of N-methyldopamine; both compounds were administered by intraduodenal route."}, "blood pressure": {"test_system": "blood pressure", "assay": "Blood pressure in spontaneous hypertensive rats, oral administration", "assay_type": "in vivo, rat", "text": "N,N-di-n-propyldopamine 4-O-dihydrogenphosphate reduced blood pressure by 30-35% (p<0.01) when orally administered to spontaneous hypertensive rats at a dose of 0.29 mmoles/kg; the effect lasted five hours while N,N-di-n-propyl dopamine was ineffective at the same dosage and also at 0.58 mmoles/kg."}, "[2]": {"conditions": "anesthetized dogs, i.d., 0.005 mmoles/kg (1.25 mg/kg), n=6"}, "[3]": {"conditions": "anesthetized dogs, i.d., 0.04 mmoles/kg (10 mg/kg), n=7, **P <0.01"}, "[4]": {"conditions": "anesthetized dogs, i.d., 0.035 mmoles/kg (7.1 mg/kg), n=5"}}}
{"smiles": "CNCCc1ccc(OP(=O)(O)O)c(O)c1", "note": "[N-methyldopamine 4-O-dihydrogenphosphate]", "values": [{"measurement": "increase of urine excretion", "setting": "urine excretion", "value": 170, "unit": "%"}, {"measurement": "duration of renal vasodilating action", "setting": "[1]; anesthetized dogs, i.d.", "value": "about four"}, {"measurement": "modification of other hemodynamic parameters", "setting": "[1]; anesthetized dogs, i.d.", "value": "without any modification of other hemodynamic parameters"}, {"measurement": "Maximum percentage variation of renal blood flow", "setting": "[1]; [2]", "value": "+14.2%"}, {"measurement": "Maximum percentage variation of renal vascular resistances", "setting": "[1]; [2]", "value": -11.2, "unit": "%"}, {"measurement": "Maximum percentage variation of renal vascular resistances", "setting": "[1]; anesthetized dogs, i.d., 0.01 mmoles/kg (2.5 mg/kg), n=6", "value": -14.1, "unit": "%"}, {"measurement": "Maximum percentage variation of renal blood flow", "setting": "[1]; anesthetized dogs, i.d., 0.01 mmoles/kg (2.5 mg/kg), n=6, **P <0.01", "value": "+18.5%"}, {"measurement": "Maximum percentage variation of renal blood flow", "setting": "[1]; anesthetized dogs, i.d., 0.02 mmoles/kg (5 mg/kg), n=7, **P <0.01", "value": "+36.4%"}, {"measurement": "Maximum percentage variation of renal vascular resistances", "setting": "[1]; anesthetized dogs, i.d., 0.02 mmoles/kg (5 mg/kg), n=7, *P <0.05", "value": -24.5, "unit": "%"}, {"measurement": "Maximum percentage variation of renal blood flow", "setting": "[1]; [3]", "value": "+31.7%"}, {"measurement": "Maximum percentage variation of renal vascular resistances", "setting": "[1]; [3]", "value": -28.1, "unit": "%"}, {"measurement": "renal vasodilating effect (in words)", "setting": "[1]; anesthetized dogs, i.d.", "value": "improved effectiveness, either in terms of activity or duration of action or selective renal vasodilating action"}, {"measurement": "absorption", "setting": "[1]; i.d., compared with N-methyldopamine", "value": "improved absorption"}]}
{"smiles": "CCOP(=O)(O)Oc1ccc(CCNC)cc1O", "note": "[N-methyldopamine 4-O-ethyl-hydrogenphosphate]", "values": [{"measurement": "duration of effects on renal blood flow and resistances", "setting": "[1]", "value": "over 5 hours"}, {"measurement": "increase of renal blood flow", "setting": "[1]; 5 mg/kg (0.018 mmoles/kg)", "value": "+46%"}, {"measurement": "reduction of renal resistances", "setting": "[1]; 5 mg/kg (0.018 mmoles/kg)", "value": -32, "unit": "%"}]}
{"smiles": "CNCCc1ccc(OP(=O)(O)OC)c(O)c1", "note": "[N-methyldopamine 4-O-methylhydrogenphosphate]", "values": [{"measurement": "duration of effects on renal blood flow and resistances", "setting": "[1]", "value": "over 5 hours"}, {"measurement": "increase of renal blood flow", "setting": "[1]; 5 mg/kg (0.019 mmole/kg)", "value": "+26%"}, {"measurement": "reduction of renal resistances", "setting": "[1]; 5 mg/kg (0.019 mmole/kg)", "value": -19, "unit": "%"}]}
{"smiles": "NCCc1ccc(O)c(O)c1", "note": "[dopamine, 1-(3,4-dihydroxyphenyl)-2-amino-ethane, reference compound]", "values": [{"measurement": "effect on renal blood flow and renal resistances (in words)", "setting": "[1]; 10 mg/kg (0.053 mmoles/kg)", "value": "ineffective"}]}
{"smiles": "CNCCc1ccc(O)c(OP(=O)(O)O)c1", "note": "[N-methyldopamine 3-O-dihydrogenphosphate]", "values": [{"measurement": "increase of urine excretion", "setting": "urine excretion", "value": 180, "unit": "%"}]}
{"smiles": "N[C@@H](CCC(=O)NCCc1ccc(OP(=O)(O)O)c(O)c1)C(=O)O", "note": "[N^5-[2-(3,4-dihydroxyphenyl)-ethyl]-L-glutamine 4-O-dihydrogenphosphate]", "values": [{"measurement": "selectivity and duration of renal effect (in words)", "setting": "[1]", "value": "selective and long lasting"}, {"measurement": "decrease in renal resistances", "setting": "[1]; 5 mg/kg (0.014 mmoles/kg)", "value": -18, "unit": "%"}, {"measurement": "increase in renal blood flow", "setting": "[1]; 5 mg/kg (0.014 mmoles/kg)", "value": "+25%"}]}
{"smiles": "CCCN(CCC)CCc1ccc(OP(=O)(O)O)c(O)c1", "note": "[N,N-di-n-propyldopamine 4-O-dihydrogenphosphate]", "values": [{"measurement": "duration of blood pressure reduction", "setting": "blood pressure; 0.29 mmoles/kg", "value": "five"}, {"measurement": "reduction of blood pressure", "setting": "blood pressure; 0.29 mmoles/kg, p<0.01", "value": "30-35%"}]}
{"smiles": "CNCCc1ccc(O)c(O)c1", "note": "[N-methyldopamine, reference compound]", "values": [{"measurement": "effect on urine excretion (in words)", "setting": "urine excretion", "value": "ineffective"}, {"measurement": "accompanying effect on blood pressure", "setting": "[1]; anesthetized dogs, i.d.", "value": "undesired increase of blood pressure"}, {"measurement": "accompanying effect on the heart", "setting": "[1]; anesthetized dogs, i.d.", "value": "stimulation of the heart"}, {"measurement": "duration of renal vasodilating action", "setting": "[1]; anesthetized dogs, i.d.", "value": "two"}, {"measurement": "Maximum percentage variation of renal blood flow", "setting": "[1]; [4]", "value": "+14.9%"}, {"measurement": "Maximum percentage variation of renal vascular resistances", "setting": "[1]; [4]", "value": -14, "unit": "%"}, {"measurement": "renal vasodilating effect (in words)", "setting": "[1]; anesthetized dogs, i.d.", "value": "smaller effect"}]}
{"smiles": "NCCc1ccc(OP(=O)(O)O)c(O)c1", "note": "[Dopamine 4-O-dihydrogenphosphate, dopamine 4-O-dihydrogenphosphate]", "values": [{"measurement": "selectivity and duration of renal effect (in words)", "setting": "[1]", "value": "selective and long lasting"}, {"measurement": "decrease in renal resistances", "setting": "[1]; 5 mg/kg (0.02 mmoles/kg)", "value": -15, "unit": "%"}, {"measurement": "increase in renal blood flow", "setting": "[1]; 5 mg/kg (0.02 mmoles/kg)", "value": "+14.5%"}]}
{"smiles": "CCCN(CCC)CCc1ccc(O)c(O)c1", "note": "[N,N-di-n-propyl dopamine, N,N-di-n-propyldopamine, reference compound]", "values": [{"measurement": "effect on blood pressure (in words)", "setting": "blood pressure; 0.29 mmoles/kg", "value": "ineffective"}, {"measurement": "effect on blood pressure (in words)", "setting": "blood pressure; 0.58 mmoles/kg", "value": "ineffective"}]}
